Laboratory results published in PMC6961122 (Bioorganic & Medicinal Chemistry, 2020).
Read-outs that look alike come from different tables or passages of the source.

Assays:
[1] = tested on: U87 cells; experiment: Cell viability assay (PrestoBlue, 5 d) in U87 glioma cells; type: cell-based; conditions: PrestoBlue day 5; for activity (EC50) of novel compounds in U87, in words: 1 to 30,000 nM, Fig. 7; for EC50 in U87 cells: repeat for most potent hits, 7-point half-log dose-response 1 to 1,000 nM
[2] = tested on: T98 cells; experiment: Cell viability assay (PrestoBlue, 5 d) in T98 glioma cells; type: cell-based; conditions: PrestoBlue day 5; for activity (EC50) of novel compounds in T98, in words: 1 to 30,000 nM, Fig. 7; for EC50 in T98 cells: repeat for most potent hits, 7-point half-log dose-response 1 to 1,000 nM
[3] = tested on: U87 cells; experiment: Cell viability assay (PrestoBlue, 5 d) in U87 glioma cells; type: cell-based; conditions: library screen, 5 d treatment, mean of three independent experiments in triplicates, read-out: EC50 U87 ± SEM
Experimental: (§1) The antiproliferative activity of a total of 100 compounds was tested against U87 and T98 glioma cell lines, using TMZ[3] and the Topoisomerase I inhibitor SN-38[18] as positive controls. Cells were treated with the library members for 5 d at three different concentrations (3, 30 and 300 µM) and cell viability determined using the PrestoBlue reagent. Half-maximal effective concentration (EC50) values were calculated from the corresponding dose-response curves and plotted in Fig. 2a as a heatmap to facilitate data analysis, with black meaning no activity and dark to light green to yellow transitions indicating decreasing EC50 values (=increasing potencies). Table 1 of the Suppl. Data contains the corresponding EC50 values ± SEM.
(§2) INK128 and SN-38 were used as positive controls. […] Structurally, these derivatives differed in the size of the alkyl group of the N1 position and the presence or absence of an oxygen atom in that moiety (see Suppl. Data).
(§3) U87 and T98 cells (ATCC) were cultured in DMEM (Gibco), supplemented with 10% (v/v) FBS (Gibco) and 2 mM L-Glutamine (Gibco) in a standard incubator (95% humidity, 5% CO2), and subcultured twice per week through trypsinization. G317 patient-derived glioma cells were established by the Glioma Cellular Genetics Resource (gcgr.org.uk) funded by Cancer Research UK. Ethics approval for use of patient-derived cells and early access confirmation to reagents from the Glioma Cellular Genetics Resource assured that all ethical issues according to UK legislation are fulfilled. G317 were cultured in DMEM/HAMS-F12 (Sigma) supplemented with 1.5 g L^−1 D-(+)-Glucose (Sigma), MEM non-essential aminoacids (Gibco), 0.015% (w/v) Penicillin-Streptomycin (Gibco), 0.012% (w/v) BSA (Gibco), 0.1 mM β-mercaptoethanol (Gibco), B27 (Gibco) and N2 supplements (Gibco). Cells were detached using accutase solution (Sigma) and subcultured once per week. Before adding to the cells, medium was supplemented with 10 ng ml^−1 mouse EGF (Preprotech), 10 ng ml^−1 human FGF (Preprotech), and 1 µg ml^−1 Laminin (Sigma).
(§4) 1 × 10^3 U87 cells/well, 5 × 10^2 T98 cells/well, 1 × 10^4 G317 cells/well, 1 × 10^4 HBVP cells/well and 1 × 10^4 bEnd3 cells/well were seeded in 96-well plates. After 48 h in culture, cells were treated with the inhibitors for 5 d. For GI50 determination, the viability of a triplicate sample of each experiment before treatment was measured with the PrestoBlue Reagent (Invitrogen), to establish a basepoint 0% of growth. […] ZIP Synergy scores were obtained with Synergy finder.[22] Viability percentage, EC50 and GI50 values were obtained using GraphPad Prism version 8.0.0 for Windows, GraphPad Software, San Diego, California USA, www.graphpad.com.

[4] = tested on: T98 cells; experiment: Cell viability assay (PrestoBlue, 5 d) in T98 glioma cells; type: cell-based; conditions: library screen, 5 d treatment, mean of three independent experiments in triplicates, read-out: EC50 T98 ± SEM
Experimental: as §1, §2, §3, §4

[5] = tested on: G317 patient-derived glioma cells; experiment: Growth inhibition (GI50, PrestoBlue, 5 d) in patient-derived glioma cells G317; type: cell-based, human; conditions: 5 d treatment, growth related to t=0 and DMSO, extrapolated from sigmoidal dose-response curve; for GI50: read-out: GI50 (50% of growth inhibition) in G317
Experimental: Cells were treated with each inhibitor at concentrations ranging from 1 to 10,000 nM and PrestoBlue assay used at day 5 to detect viability. […] Data are means ± SEM of 3 independent experiments in triplicates.
as §3, §4
Table S2 . GI 50 values (nM) calculated for eCF309 , eCF311 , eCF312 , eCF324 , eCF325 and controls
Cells were treated with 10, 3, 1 µM,
300, 100, 30, 10, 3, 1, 0 nM of each inhibitor during 5 d. Cell growth (PrestoBlue) was related to t=0 (before
drug treatment), and GI 50 values were extrapolated from their corresponding sigmoidal dose-response curve

[6] = tested on: mTOR; parameters: method as in earlier work; conditions: recombinant kinase; previously obtained kinase profiling data; cited from earlier work
[7] = tested on: PI3Kα; parameters: method as in earlier work; conditions: recombinant kinase; previously obtained kinase profiling data; cited from earlier work
[8] = Homo sapiens, Glioma cell, 120 h

| Compound | EC50 [3] [µM] | EC50 [4] [µM] | also measured |
| --- | --- | --- | --- |
| Nc1ncnc2c1c(-c1cnc3[nH]ccc3c1)nn2CC1CCCC1 [eDB002] | – | – | activity (EC50) of novel compounds in U87, in words [1]: high activity; activity (EC50) of novel compounds in T98, in words [2]: high activity |
| CCOC(Cn1nc(-c2ccc3oc(N)nc3c2)c2c(N)ncnc21)OCC [eCF309] | – | – | EC50 ([3]; Homo sapiens, U-87 MG, 120 h): 0.129 ± 0.019 µM; EC50 ([4]; Homo sapiens, T98, 120 h): 0.128 ± 0.022 µM; GI50 [5]: 0.0649 µM; GI50 [5, 8]: 0.065 µM; IC50 [6]: 0.015 µM; IC50 [7]: 0.981 µM |
| Nc1nc2cc(-c3nn(CC4CCCO4)c4ncnc(N)c34)ccc2o1 (stereo not drawn) [eCF325] | – | – | EC50 ([3]; Homo sapiens, U-87 MG, 120 h): 0.138 ± 0.023 µM; EC50 ([4]; Homo sapiens, T98, 120 h): 0.105 ± 0.023 µM; GI50 [5, 8]: 0.0464 µM |
| Nc1nc2cc(-c3nn(C[C@@H]4CCCO4)c4ncnc(N)c34)ccc2o1 [eCF334] | – | – | EC50 ([3]; Homo sapiens, U-87 MG, 120 h): 0.138 ± 0.013 µM; EC50 ([4]; Homo sapiens, T98, 120 h): 0.1 ± 0.018 µM; GI50 (50% of growth inhibition) in G317 [5]: identical dose response curves to eCF325; EC50 in U87 cells [1]: identical dose response curves to that of eCF325; EC50 in T98 cells [2]: identical dose response curves to that of eCF325 |
| Nc1nc2cc(-c3nn(C[C@H]4CCCO4)c4ncnc(N)c34)ccc2o1 [eCF333] | – | – | EC50 ([3]; Homo sapiens, U-87 MG, 120 h): 0.131 ± 0.01 µM; EC50 ([4]; Homo sapiens, T98, 120 h): 0.088 ± 0.014 µM; GI50 (50% of growth inhibition) in G317 [5]: identical dose response curves to eCF325; EC50 in U87 cells [1]: identical dose response curves to that of eCF325; EC50 in T98 cells [2]: identical dose response curves to that of eCF325 |
| CNc1ncc2c(-c3ccc(N4CCNCC4)nc3)nn(CC3CCCC3)c2n1 [eSM107] | 3.33 ± 0.166 | 2.42 ± 0.504 | – |
| CNc1ncc2c(-c3ccc4oc(N)nc4c3)nn(CC3CCCC3)c2n1 [eDB001] | – | – | activity (EC50) of novel compounds in U87, in words [1]: high activity; activity (EC50) of novel compounds in T98, in words [2]: high activity |
| COC(Cn1nc(-c2ccc3oc(N)nc3c2)c2c(N)ncnc21)OC [eCF312] | – | – | EC50 ([3]; Homo sapiens, U-87 MG, 120 h): 0.116 ± 0.021 µM; EC50 ([4]; Homo sapiens, T98, 120 h): 0.08 ± 0.021 µM; GI50 [5, 8]: 0.0369 µM |
| CNc1ncc2c(-c3ccc(F)cc3)nn(CC3OCCO3)c2n1 [eSM113] | > 30 | > 30 | – |
| CCc1c2c(nc3ccc(O)cc13)-c1cc3c(c(=O)n1C2)COC(=O)[C@]3(O)CC [SN-38, reference compound] | – | – | GI50 [5, 8]: 0.0129 µM |
| Cc1ccc(-c2nn(CCN3CCN(CCN(C)C)CC3)c3ncnc(N)c23)cc1 [eCF105] | > 30 | > 30 | – |
| CNc1ncc2c(-c3ccc(C(F)(F)F)cc3)nn(CC3OCCO3)c2n1 [eSM114] | > 30 | > 30 | – |
| COc1cc(-c2nn(CCN3CCC(N4CCCCC4)CC3)c3ncnc(N)c23)ccc1NC(=O)OC(C)(C)C [eCF519] | 17 ± 2.37 | 3.14 ± 0.331 | – |
| CNc1ncc2c(-c3ccc(N4CCN(C)CC4)nc3)nn(CC3CCCC3)c2n1 [eSM157] | 7.28 ± 2.7 | 1.71 ± 0.512 | – |
| CCN1CCN(c2ccc(-c3nn(Cc4cn(Cc5ccccc5)nn4)c4nc(NC)ncc34)cn2)CC1 [eSM155] | > 30 | > 30 | – |
| CNc1ncc2c(-c3cnc4[nH]ccc4c3)nn(Cc3cn(Cc4ccccc4)nn3)c2n1 [eSM145] | 14.2 ± 0.557 | 9.11 ± 1.67 | – |
| CNc1ncc2c(-c3ccc(N4CCN(C)CC4)nc3)nn(Cc3cn(Cc4ccccc4)nn3)c2n1 [eSM134] | 18.9 ± 5.27 | 18.8 ± 3.57 | – |
| COc1cc(-c2nn(CCN3CCC(N(C)C)CC3)c3ncnc(N)c23)ccc1NC(=O)NC(C)(C)C [eCF537] | > 30 | 17.6 ± 3.24 | – |
| COc1ccc(-c2nn(CC3CCCC3)c3ncnc(N)c23)cc1 [eSM205] | 14.3 ± 6.14 | 11.9 ± 6.5 | – |
| Nc1ncnc2c1c(-c1ccoc1)nn2C1CCCC1 [eSM209] | 23.6 ± 2.51 | 15.6 ± 1.45 | – |
| Nc1nc2cc(-c3nn(CC4OCCO4)c4ncnc(N)c34)ccc2o1 [eCF311] | – | – | EC50 ([3]; Homo sapiens, U-87 MG, 120 h): 0.392 ± 0.058 µM; EC50 ([4]; Homo sapiens, T98, 120 h): 0.323 ± 0.087 µM; GI50 [5, 8]: 0.147 µM |
| CNc1ncc2c(-c3ccc(C(N)=O)cc3)nn(CC3CCCC3)c2n1 [eSM106] | > 30 | > 30 | – |
| 2-(1H-Indazol-4-yl)-6-(4-methanesulfonyl-piperazin-1-ylmethyl)-4-morpholin-4-yl-thieno[3,2-d]pyrimidine [GDC0941, reference compound] | – | – | activity (EC50) in U87 cells, in words ([1]; 1 to 1,000 nM, Fig. 3): low µM activity; activity (EC50) against T98, in words ([2]; 1 to 1,000 nM, Fig. 3): sub-µM activity |
| CNc1ncc2c(-c3ccc(-c4ccccc4)cc3)nn(CC3OCCO3)c2n1 [eSM111] | > 30 | > 30 | – |
| COc1ccc(-c2nn(CC3CCCC3)c3ncnc(N)c23)cc1OC [eSM204] | 8.56 ± 0.564 | 6.58 ± 1.47 | – |

Further lines, with some results ahead:

| EC50 [3] [µM] | EC50 [4] [µM] | Compound | also measured |
| --- | --- | --- | --- |
| 8 ± 3.32 | 1.77 ± 0.865 | CNc1ncc2c(-c3ccc(N4CCN(C)CC4)cc3)nn(CC3CCCC3)c2n1 [eSM156] | – |
| 12 ± 0.168 | 3.48 ± 0.567 | COc1cc(-c2nn(CCN3CCC(N4CCCC4)CC3)c3ncnc(N)c23)ccc1NC(=O)OC(C)(C)C [eCF518] | – |
| > 30 | 11.4 ± 1.44 | CN(C)C1CCN(CCn2nc(-c3ccc(NC(=O)OC(C)(C)C)cc3)c3c(N)ncnc32)CC1 [eCF543] | – |
| > 30 | > 30 | CN(C)C1CCN(CCn2nc(-c3ccc(NC(=O)OC(C)(C)C)nc3)c3c(N)ncnc32)CC1 [eCF549] | – |
| > 30 | > 30 | Cc1ccc(-c2nn(CCN3CCOCC3)c3ncnc(N)c23)cc1 [eCF102] | – |
| 19.9 ± 6.03 | 21.3 ± 3.28 | NC(=O)c1ccc(-c2nn(CC3CCCC3)c3ncnc(N)c23)cc1 [eSM207] | – |
| > 30 | > 30 | CCOC(Cn1nc(-c2ccc(OC)c(OC)c2)c2c(N)ncnc21)OCC [eCF204] | – |
| > 30 | 16.4 ± 9.53 | COc1cc(-c2nn(CCN3CCC(N4CCCC4)CC3)c3ncnc(N)c23)ccc1NC(=O)OC(C)(C)C [eCF598] | – |
| > 30 | > 30 | CN(C)C1CCN(CCn2nc(-c3cccc(NC(=O)OC(C)(C)C)c3)c3c(N)ncnc32)CC1 [eCF542] | – |
| 25.4 ± 4.66 | 24.2 ± 3.6 | CNc1ncc2c(-c3ccc(N4CCNCC4)nc3)nn(Cc3cn(C4CCCCC4O)nn3)c2n1 (stereo not drawn) [eSM123] | – |
| > 30 | 26.3 ± 7.3 | Cc1ccc(-c2nn(CCN3CCC(N(C)C)CC3)c3ncnc(N)c23)cc1 [eCF109] | – |
| 22.6 ± 5.38 | 11.1 ± 1.1 | COc1cc(-c2nn(CCN3CCC(N(C)C)CC3)c3ncnc(N)c23)ccc1NC(=O)CCc1ccccc1 [eCF531] | – |
| > 30 | > 30 | Cc1ccc(-c2nn(CCN3CCC(C)CC3)c3ncnc(N)c23)cc1 [eCF110] | – |
| > 30 | > 30 | CCOC(Cn1nc(-c2ccc3ncccc3c2)c2c(N)ncnc21)OCC [eCF203] | – |
| > 30 | 15.6 ± 2.75 | CCNc1ncc2c(-c3ccc(N4CCNCC4)nc3)nn(CC3OCCO3)c2n1 [eSM133] | – |
| 18.7 ± 4.91 | 16.8 ± 3.66 | CN(C)CC1CCN(CCn2nc(-c3ccc4[nH]ccc4c3)c3c(N)ncnc32)CC1 [eCF221] | – |
| > 30 | > 30 | CCOC(Cn1nc(-c2ccoc2)c2c(N)ncnc21)OCC [eCF206] | – |
